# Reference: PubChem BioAssay (NCI)
#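 These data come from cells grown in 96-well plates and exposed to compound for 48 hours at five concentrations. Abbreviation: GI50, concentration required for 50% inhibition of growth. TGI marks complete inhibition of growth.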
# Key:
# Experiment in all cases: growth of human tumour cells (NCI), 48 h
# [1] = system: OVCAR-4 ovarian
# [2] = system: EKVX NSCLC
# [3] = system: KM12 colon
# [4] = system: OVCAR-5 ovarian
# [5] = system: HOP-92 NSCLC
# [6] = system: RPMI-8226 leukemia
# [7] = system: SK-MEL-5 melanoma
# [8] = system: IGROV1 ovarian
# [9] = system: COLO 205 colon
# [10] = system: SW-620 colon
# [11] = system: SK-MEL-2 melanoma
# [12] = system: OVCAR-8 ovarian
# [13] = system: NCI-H226 lung
# [14] = system: NCI-H522 lung
# [15] = system: TK-10 renal
# [16] = system: NCI-H23 lung
# [17] = system: MDA-MB-231 breast
# [18] = system: HCT-15 colon
# [19] = system: HL-60(TB) leukemia
# [20] = system: SNB-19 CNS
# [21] = system: HCC-2998 colon
# [22] = system: SF-268 CNS
# [23] = system: SR leukemia
# [24] = system: OVCAR-3 ovarian
# [25] = system: PC-3 prostate
# [26] = system: MCF7 breast
# [27] = system: SN12C renal
# [28] = system: MDA-MB-435
# [29] = system: A498 renal
# [30] = system: SF-295 CNS
# [31] = system: MOLT-4 leukemia
# [32] = system: SK-OV-3 ovarian
# [33] = system: CCRF-CEM leukemia
# [34] = system: K-562 leukemia
# [35] = system: M14 melanoma
# [36] = system: UO-31 renal
# [37] = system: NCI/ADR-RES ovarian
# [38] = system: CAKI-1 renal
# [39] = system: HOP-62 NSCLC
# [40] = system: U251 CNS
# [41] = system: SF-539 CNS
# [42] = system: 786-0 renal
# [43] = system: NCI-H460 lung
# [44] = system: MDA-N
# [45] = system: HT29 colon
# [46] = system: MALME-3M melanoma
# [47] = system: ACHN renal
# [48] = system: UACC-62 melanoma
# [49] = system: HS 578T breast
# [50] = system: A549 NSCLC
# [51] = system: UACC-257 melanoma
# [52] = system: LOX IMVI melanoma
# [53] = system: BT-549 breast
# [54] = system: HCT-116 colon
# [55] = system: SK-MEL-28 melanoma
# [56] = system: T-47D breast
# [57] = system: SNB-75 CNS
# [58] = system: DU-145 prostate
# [59] = system: RXF 393 renal
smiles,measurement,setting,value
CC(C)CC(=O)CC(C)[C@]1(CCCOCc2ccccc2)C(=O)N2CCC3(C[C@@]24CCC[C@H]41)OCCO3 (stereo not given in full),TGI,[1],> 10 µM
same,TGI,[2],> 10 µM
same,TGI,[3],> 10 µM
same,TGI,[4],> 10 µM
same,TGI,[5],> 10 µM
same,TGI,[6],> 10 µM
same,TGI,[7],> 10 µM
same,TGI,[8],> 10 µM
same,TGI,[9],> 10 µM
same,TGI,[10],> 10 µM
same,TGI,[11],> 10 µM
same,TGI,[12],> 10 µM
same,TGI,[13],> 10 µM
same,TGI,[14],> 10 µM
same,TGI,[15],> 10 µM
same,TGI,[16],> 10 µM
same,TGI,[17],> 10 µM
same,TGI,[18],> 10 µM
same,TGI,[19],> 10 µM
same,TGI,[20],> 10 µM
same,TGI,[21],> 10 µM
same,TGI,[22],> 10 µM
same,TGI,[23],> 10 µM
same,TGI,[24],> 10 µM
same,TGI,[25],> 10 µM
same,TGI,[26],> 10 µM
same,TGI,[27],> 10 µM
same,TGI,[28],> 10 µM
same,TGI,[29],> 10 µM
same,TGI,[30],> 10 µM
same,TGI,[31],> 10 µM
same,TGI,[32],> 10 µM
same,TGI,[33],> 10 µM
same,TGI,[34],> 10 µM
same,TGI,[35],> 10 µM
same,TGI,[36],> 10 µM
same,TGI,[37],> 10 µM
same,TGI,[38],> 10 µM
same,TGI,[39],> 10 µM
same,TGI,[40],> 10 µM
same,TGI,[41],> 10 µM
same,TGI,[42],> 10 µM
same,TGI,[43],> 10 µM
same,TGI,[44],> 10 µM
CN(CCNC(=O)c1cn(C)c2c1ccc1ccccc12)CCNC(=O)c1cn(C)c2c1ccc1ccccc12,TGI,[1],16.2 µM
same,TGI,[2],6.93 µM
same,TGI,[45],> 100 µM
same,TGI,[3],2.98 µM
same,TGI,[4],3.52 µM
same,TGI,[5],5.26 µM
same,TGI,[7],> 100 µM
same,TGI,[46],5.13 µM
same,TGI,[47],> 100 µM
same,TGI,[8],4.65 µM
same,TGI,[48],12.7 µM
same,TGI,[10],> 100 µM
same,TGI,[11],4.6 µM
same,TGI,[12],> 100 µM
same,TGI,[13],> 75.1 µM
same,TGI,[16],> 100 µM
same,TGI,[17],3.8 µM
same,TGI,[20],> 100 µM
same,TGI,[21],1.49 µM
same,TGI,[22],> 21.3 µM
same,TGI,[24],11.4 µM
same,TGI,[49],3.11 µM
same,TGI,[50],11.1 µM
same,TGI,[25],7.02 µM
same,TGI,[27],10.6 µM
same,TGI,[29],> 34.5 µM
same,TGI,[51],6.62 µM
same,TGI,[30],> 22.2 µM
same,TGI,[32],22.3 µM
same,TGI,[33],> 100 µM
same,TGI,[35],2.97 µM
same,TGI,[52],> 100 µM
same,TGI,[36],4.68 µM
same,TGI,[37],> 100 µM
same,TGI,[38],> 100 µM
same,TGI,[39],5.53 µM
same,TGI,[40],4.58 µM
same,TGI,[43],3.72 µM
same,TGI,[44],4.25 µM
same,TGI,[53],6.87 µM
O=C1CN=C(c2ccc[nH]2)c2cc(Cl)ccc2N1,GI50,[1],> 100 µM
same,TGI,[1],> 100 µM
same,GI50,[2],> 100 µM
same,TGI,[2],> 100 µM
same,GI50,[45],38.9 µM
same,TGI,[45],> 100 µM
same,GI50,[3],> 100 µM
same,TGI,[3],> 100 µM
same,GI50,[4],> 100 µM
same,TGI,[4],> 100 µM
same,GI50,[5],12.2 µM
same,TGI,[5],> 100 µM
same,GI50,[6],3.83 µM
same,TGI,[6],> 100 µM
same,GI50,[7],> 100 µM
same,TGI,[7],> 100 µM
same,GI50,[46],> 100 µM
same,TGI,[46],> 100 µM
same,GI50,[47],> 100 µM
same,TGI,[47],> 100 µM
same,GI50,[8],> 100 µM
same,TGI,[8],> 100 µM
same,GI50,[9],> 100 µM
same,TGI,[9],> 100 µM
same,GI50,[48],95 µM
same,TGI,[48],> 100 µM
same,GI50,[10],> 100 µM
same,TGI,[10],> 100 µM
same,GI50,[11],> 100 µM
same,TGI,[11],> 100 µM
same,GI50,[12],> 100 µM
same,TGI,[12],> 100 µM
same,GI50,[54],13 µM
same,TGI,[54],> 100 µM
same,GI50,[13],> 100 µM
same,TGI,[13],> 100 µM
same,GI50,[14],25.2 µM
same,TGI,[14],> 100 µM
same,GI50,[15],> 100 µM
same,TGI,[15],> 100 µM
same,GI50,[55],> 100 µM
same,TGI,[55],> 100 µM
same,GI50,[16],18.6 µM
same,TGI,[16],> 100 µM
same,GI50,[17],> 100 µM
same,TGI,[17],> 100 µM
same,GI50,[18],19.1 µM
same,TGI,[18],> 100 µM
same,GI50,[19],4.16 µM
same,TGI,[19],> 100 µM
same,GI50,[20],> 100 µM
same,TGI,[20],> 100 µM
same,GI50,[56],> 100 µM
same,TGI,[56],> 100 µM
same,GI50,[21],> 100 µM
same,TGI,[21],> 100 µM
same,GI50,[57],> 100 µM
same,TGI,[57],> 100 µM
same,GI50,[22],> 100 µM
same,TGI,[22],> 100 µM
same,GI50,[23],> 100 µM
same,TGI,[23],> 100 µM
same,GI50,[24],> 100 µM
same,TGI,[24],> 100 µM
same,GI50,[49],> 100 µM
same,TGI,[49],> 100 µM
same,GI50,[58],> 100 µM
same,TGI,[58],> 100 µM
same,GI50,[50],> 100 µM
same,TGI,[50],> 100 µM
same,GI50,[25],93.4 µM
same,TGI,[25],> 100 µM
same,GI50,[26],> 100 µM
same,TGI,[26],> 100 µM
same,GI50,[27],> 100 µM
same,TGI,[27],> 100 µM
same,GI50,[28],> 100 µM
same,TGI,[28],> 100 µM
same,GI50,[29],> 100 µM
same,TGI,[29],> 100 µM
same,GI50,[51],> 100 µM
same,TGI,[51],> 100 µM
same,GI50,[30],> 100 µM
same,TGI,[30],> 100 µM
same,GI50,[31],> 100 µM
same,TGI,[31],> 100 µM
same,GI50,[32],> 100 µM
same,TGI,[32],> 100 µM
same,GI50,[33],30.6 µM
same,TGI,[33],> 100 µM
same,GI50,[34],54 µM
same,TGI,[34],> 100 µM
same,GI50,[35],> 100 µM
same,TGI,[35],> 100 µM
same,GI50,[59],> 100 µM
same,TGI,[59],> 100 µM
same,GI50,[52],17.9 µM
same,TGI,[52],> 100 µM
same,GI50,[36],> 100 µM
same,TGI,[36],> 100 µM
same,GI50,[37],57.4 µM
same,TGI,[37],> 100 µM
same,GI50,[38],> 100 µM
same,TGI,[38],> 100 µM
same,GI50,[39],> 100 µM
same,TGI,[39],> 100 µM
same,GI50,[40],71.8 µM
same,TGI,[40],> 100 µM
same,GI50,[41],> 100 µM
same,TGI,[41],> 100 µM
same,GI50,[42],> 100 µM
same,TGI,[42],> 100 µM
same,GI50,[43],4.38 µM
same,TGI,[43],> 100 µM
same,GI50,[53],53.3 µM
same,TGI,[53],> 100 µM
